13 compounds from patent publication US20210346336A1, “FURAN DERIVATIVES AS BROMODOMAIN INHIBITORS” (GlaxoSmithKline Intellectual Property (No.2) Limited, priority 2018, published 2021) can be followed below.

For one test, the target named is T1, BRD4 BD2 (Homo sapiens, UniProt O60885, Y97A).
T1 construct: BRD4 (1-477) (Y97A) and (Y390A); made in house; host or cells: E. coli (pET15b vector)
The test is described as follows: BRD4 BD2 TR-FRET competition assay (mutant tandem bromodomain). The conditions noted are these: read-out: pIC50 in the BRD4 BD2 assay (converted). Format: binding. Here is the method:
Bromodomain binding was assessed utilising a time resolved fluorescent resonance energy transfer (TR-FRET) competition assay. To enable this approach a known, high affinity, pan-BET interacting small molecule was labelled with Alexa Fluor® 647, which is a far-red-fluorescent dye (Reference Compound X). Reference Compound X acts as a reporter of bromodomain binding and is the acceptor fluorophore component of the TR-FRET pair. Europium chelate, conjugated to an anti-6*His antibody, was utilised as the donor fluorophore in the TR-FRET pair. […] A TR-FRET signal is generated when the donor and acceptor fluorophores are in close proximity, between 20-80 Å, which is enabled in this assay by binding of Reference Compound X to the bromodomain protein.
Assay Principle: In order to generate a TR-FRET signal, donor fluorophore is excited by a laser at λ337 nm, which subsequently leads to emission at λ618 nm. If the acceptor fluorophore is in close proximity then energy transfer can occur, which leads to emission of Alexa Fluor® 647 at λ665 nm. In the presence of competitor compound, Reference Compound X can be displaced from binding to the bromodomain. If displacement occurs, the acceptor fluorophore is no longer in proximity to the donor fluorophore, which prevents fluorescent energy transfer and, subsequently, a loss of Alexa Fluor®647 emission at λ665 nm.
(§1) The competition of the compounds of formula (I) with Reference Compound X for binding to the BET family (BRD2, BRD3, BRD4 and BRDT) was assessed using protein truncates spanning both bromodomain 1 (BD1) and bromodomain 2 (BD2). In order to monitor differential binding to either BD1 or BD2, single residue mutations of key tyrosines to alanine were made in the acetyl lysine binding pockets. To validate this approach, a double residue mutant tandem domain protein was produced for each of the BET family members. Utilising a Fluorescence Polarisation approach, binding affinities for each of the single and double mutants for Reference Compound X were determined.
Final purification was completed by Superdex 200 prep grade size exclusion column. Purified protein was stored at −80° C. in 20 mM HEPES pH 7.5 and 100 mM NaCl.
Protocol for Bromodomain BRD2, 3, 4 and T, BD1+BD2 mutant TR-FRET competition assays: All assay components were dissolved in an assay buffer composing of 50 mM HEPES pH7.4, 50 mM NaCl, 5% Glycerol, 1 mM DTT and 1 mM CHAPS. […] The solution containing bromodomain and Reference Compound X was added to dose response dilutions of test compound or DMSO vehicle (a maximum of 0.5% DMSO is used in this assay) in Greiner 384 well black low volume microtitre plates and subsequently incubated for 30 minutes at rt. An equal volume of 3 nM of anti-6*His Europium chelate was added to all wells, followed by a further 30 minute incubation at rt. TR-FRET was detected using a Perkin Elmer Multimode plate reader, by exciting the donor fluorophore at λ337 nm and subsequently, after a delay of 50 μsecs, measuring emission of the donor and acceptor fluorophores at λ615 nm and λ665 nm, respectively. In order to control these assays, 16 replicates each of uninhibited (DMSO vehicle) and inhibited (10*IC50 concentrations of Example 11 of WO 2011/054846A1) TR-FRET assays were included on every microtitre plate.
cA four parameter curve fit of the following form was then applied:
y=a+((b−a)/(1+(10^x/10^c)^d) • Where ‘a’ is the minimum, ‘b’ is the […], ‘c’ is the pIC50 and ‘d’ is the […].
Those of skill in the art will recognise that in vitro binding assays and cell-based assays for functional activity are subject to experimental variability. Accordingly, it is to be understood that the pIC50 values given below are exemplary only. pIC50 values are expressed as log10 units.
(In general: Time-resolved FRET reads energy transfer from a long-lived donor to a nearby acceptor.)
Turning to `CNC(=O)c1cc(C(=O)N[C@H]2[C@@H]3COC[C@@H]32)c([C@H](CC#N)c2cccc(Cl)c2)o1` (single isomer, unassigned) [Example 88, N^4-((1R,5S,6r)-3-Oxabicyclo[3.1.0]hexan-6-yl)-5-((R*)-1-(3-chlorophenyl)-2-cyanoethyl)-N^2-methylfuran-2,4-dicarboxamide], the IC50 was 1 to 10 µM. Same read-out and setting: to `CNC(=O)c1cc(C(=O)N[C@H]2[C@@H]3COC[C@@H]32)c([C@H](C)c2cccc(Cl)c2)o1` (single isomer, unassigned) [Example 89, N^4-((1R,5S,6r)-3-Oxabicyclo[3.1.0]hexan-6-yl)-5-((R*)-1-(3-chlorophenyl)ethyl)-N^2-methylfuran-2,4-dicarboxamide] belongs 1 to 10 µM; to `CNC(=O)c1cc(C(=O)N[C@H]2CC[C@H](O)CC2)c([C@@H](OC)c2cccc(Cl)c2)o1` (single isomer, unassigned) [Example 93, 5-((S*)-(3-Chlorophenyl)(methoxy)methyl)-N^4-((1r,4S)-4-hydroxycyclohexyl)-N^2-methylfuran-2,4-dicarboxamide], 1 to 10 µM; to `CNC(=O)c1cc(C(=O)N[C@H]2CC[C@H](O)CC2)c([C@@H](C)c2cc(Cl)cc(OC)c2)o1` (single isomer, unassigned) [Example 94, 5-((S*)-1-(3-Chloro-5-methoxyphenyl)ethyl)-N^4-((1r,4S)-4-hydroxycyclohexyl)-N^2-methylfuran-2,4-dicarboxamide], 1 to 10 µM.

For the compound `CNC(=O)c1cc(C(=O)N[C@H]2CC[C@H](O)CC2)c([C@@H](C)c2ccc(OC)c(Cl)c2)o1` (single isomer, unassigned) [Example 95, 5-((S*)-1-(3-Chloro-4-methoxyphenyl)ethyl)-N^4-((1r,4S)-4-hydroxycyclohexyl)-N^2-methylfuran-2,4-dicarboxamide], the IC50 was 1 to 10 µM. On the same count and under the same terms, to `CNC(=O)c1cc(C(=O)N[C@H]2C[C@@H]2C)c(C(C)c2ccccc2)o1` (single isomer, unassigned) [Example 96, N^2-methyl-N^4-((1S,2S)-2-Methylcyclopropyl)-5-((S*)-1-phenylethyl)furan-2,4-dicarboxamide] belongs 1 to 10 µM; to `CNC(=O)c1cc(C(=O)N[C@H]2CC[C@H](O)CC2)c([C@@H](C)c2ccc(C)c(Cl)c2)o1` (single isomer, unassigned) [Example 98, 5-((S*)-1-(3-Chloro-4-methylphenyl)ethyl)-N^4-((1r,4S)-4-hydroxycyclohexyl)-N^2-methylfuran-2,4-dicarboxamide], 1 to 10 µM. The same measure, in the same setting: to `CNC(=O)c1cc(C(=O)N[C@H]2CC[C@H](O)CC2)c([C@@H](CO)c2ccccc2)o1` (single isomer, unassigned) [Example 101, 5-((R*)-2-Hydroxy-1-phenylethyl)-N^4-((1r,4R)-4-hydroxycyclohexyl)-N^2-methylfuran-2,4-dicarboxamide] belongs 1 to 10 µM; to `CNC(=O)c1cc(C(=O)N[C@H]2CC[C@H](O)CC2)c([C@@H](C)c2ccc(OC)cc2)o1` (single isomer, unassigned) [Example 102, N^4-((1r,4S)-4-Hydroxycyclohexyl)-5-((S*)-1-(4-methoxyphenyl)ethyl)-N^2-methylfuran-2,4-dicarboxamide], 1 to 10 µM; to `CNC(=O)c1cc(C(=O)N[C@H]2CC[C@H](O)CC2)c([C@@H](C)c2ccc(OC)c(OC)c2)o1` (single isomer, unassigned) [Example 106, 5-((S*)-1-(3,4-Dimethoxyphenyl)ethyl)-N^4-((1r,4S)-4-hydroxycyclohexyl)-N^2-methylfuran-2,4-dicarboxamide], 1 to 10 µM.

For the compound `CNC(=O)c1cc(C(=O)N[C@H]2CC[C@H](O)CC2)c([C@@H](OC)c2ccccc2)o1` (single isomer, unassigned) [Example 108, N^4-((1r,4S)-4-Hydroxycyclohexyl)-5-((S*)-methoxy(phenyl)methyl)-N^2-methylfuran-2,4-dicarboxamide], the IC50 was 1 to 10 µM.

`CNC(=O)c1cc(C(=O)NCC2CC2)c([C@@H](C)c2ccccc2)o1` [Example 104, (S)-N^4-(Cyclopropylmethyl)-N^2-methyl-5-(1-phenylethyl)furan-2,4-dicarboxamide]: the IC50 is 1 to 10 µM.

A further test relates to BET family (BRD2, BRD3, BRD4 and BRDT) tandem bromodomain proteins. Briefly: Fluorescence Polarisation binding of Reference Compound X to single and double mutant tandem BET proteins. Further details: species or system Human. The conditions noted are these: compared with the corresponding non-mutated BET protein. The procedure: as §1, with “determined. […] The affinities of the single mutated bromdomain tandem proteins for Reference Compound X were equi-potent with the corresponding non-mutated BET protein. […] In the TR-FRET competition assay, Reference Compound X is used at a concentration that is equivalent to the Kd for the non-mutated bromodomain, which ensures that no binding at the mutated bromodomain is detected.” for “determined.”
Protein production: Recombinant Human Bromodomains [(BRD2 (1-473) (Y113A) and (Y386A), BRD3 (1-435) (Y73A) and (Y348A) BRD4 (1-477) (Y97A) and (Y390A) and BRDT (1-397) (Y66A) and (Y309A)] were expressed in E. coli cells (in pET15b vector for BRD2/3/4 and in pET28a vector for BRDT) with a 6-His tag at the N-terminal. The His-tagged Bromodomain pellet was resuspended in 50 mM HEPES (pH7.5), 300 mM NaCl, 10 mM imidazole & 1 μL/mL protease inhibitor cocktail and extracted from the E. coli cells using sonication and purified using a nickel sepharose high performance column, the proteins were washed and then eluted with a linear gradient of 0-500 mM imidazole with buffer 50 mM HEPES (pH7.5), 150 mM NaCl, 500 mM imidazole, over 20 column volumes. Final purification was completed by Superdex 200 prep grade size exclusion column. Purified protein was stored at −80° C. in 20 mM HEPES pH 7.5 and 100 mM NaCl. Protein identity was confirmed by peptide mass fingerprinting and predicted molecular weight confirmed by mass spectrometry.
For orientation: Polarisation of emitted light reports the rotation of a fluorescent probe.
As to `COc1ccc2c(c1)C(c1ccc(Cl)cc1)=N[C@@H](CC(=O)NCCCCCNC(=O)CCCCCC1(C)/C(=C/C=C/C=C/C3=[N+](CCCCS(=O)(=O)O)c4ccc(S(=O)(=O)O)cc4C3(C)C)N(CCCCS(=O)(=O)[O-])c3ccc(S(=O)(=O)O)cc31)c1nnc(C)n1-2` (stereo partly drawn) [Reference Compound X], the “affinities of the single mutated bromdomain tandem proteins” value is “equi-potent”.

The test is the same for the next values; noted with them: double mutant tandem proteins in comparison to non mutated, wild type tandem BET proteins.
`COc1ccc2c(c1)C(c1ccc(Cl)cc1)=N[C@@H](CC(=O)NCCCCCNC(=O)CCCCCC1(C)/C(=C/C=C/C=C/C3=[N+](CCCCS(=O)(=O)O)c4ccc(S(=O)(=O)O)cc4C3(C)C)N(CCCCS(=O)(=O)[O-])c3ccc(S(=O)(=O)O)cc31)c1nnc(C)n1-2` (stereo partly drawn) [Reference Compound X]: the “reduction in Kd” value is recorded as over 1000 fold.

The same test, now with this note: single mutations of Tyrosine to Alanine.
Regarding `COc1ccc2c(c1)C(c1ccc(Cl)cc1)=N[C@@H](CC(=O)NCCCCCNC(=O)CCCCCC1(C)/C(=C/C=C/C=C/C3=[N+](CCCCS(=O)(=O)O)c4ccc(S(=O)(=O)O)cc4C3(C)C)N(CCCCS(=O)(=O)[O-])c3ccc(S(=O)(=O)O)cc31)c1nnc(C)n1-2` (stereo partly drawn) [Reference Compound X], the “reduction of the Kd of the interaction between the mutated bromodomain and Reference Compound X” value was over 1000 fold.
